# Measurements as given in PubChem BioAssay AID651574 (The Scripps Research Institute Molecular Screening Center, 2012).
# Activity calls are given as the source filed them. How the calls were made is not given here.
# System: Core protein (Hepatitis C virus)
# Assay: reduction of HCV RNA in infected cells – cell-based, fluorescence qPCR, two timepoints, counter-screen for HCV core dimerization inhibitor project, late-stage follow-up (AID 651574)
# Conditions: viral RNA qPCR
SMILES,IC50 (timepoint 1) [µM],IC50 (timepoint 2)
Cc1ccc(Cc2c(C)nc3nc(SCC(=O)NCCN4CCCCCC4)nn3c2C)cc1,8.5,13.7 µM
Cc1ccc(Cc2c(C)nc3nc(SCC(=O)NCCN4CCN(CCc5ccccc5)CC4)nn3c2C)cc1,3.07,
Cc1ccc(Cc2c(C)nc3nc(SCC(=O)NCCN4CCCN(S(=O)(=O)c5ccc(C)cc5)CC4)nn3c2C)cc1,2.7,7.2 µM
Cc1ccc(Cc2c(C)nc3nc(SCC(=O)NCCN4CCNCC4)nn3c2C)cc1,,1.8 µM
Cc1ccc(Cc2c(C)nc3nc(SCC(=O)NCCN4CCN(Cc5ccc(F)cc5)CC4)nn3c2C)cc1,0.099,
Cc1ccc(Cc2c(C)nc3nc(SCC(=O)NCCCN4CCCCCC4)nn3c2C)cc1,6.7,12 µM
Cc1ccc(Cc2c(CCc3ccccc3)nc3nc(SC(Cc4ccccc4)C(=O)NCCN4CCOCC4)nn3c2C)cc1 (configuration not stated),7.7,
Cc1ccc(Cc2c(C)nc3nc(SCC(=O)NCCN4CCOCC4)nn3c2C)cc1,12,
Cc1ccc(Cc2c(C)nc3nc(SCC(=O)NCCN4CCCN(S(=O)(=O)c5ccccc5)CC4)nn3c2C)cc1,3.2,2.2 µM
Cc1ccc(Cc2c(C)nc3nc(SCC(=O)NCCN4CCN(S(=O)(=O)c5ccccc5)CC4)nn3c2C)cc1,5.3,12.5 µM
Cc1ccc(Cc2c(C)nc3nc(SCC(=O)NCCN4CCCN(S(C)(=O)=O)CC4)nn3c2C)cc1,18.9,24.3 µM (inactive)
